Measured values from PMC11766569, “Novel Insights into the Nobilamide Family from a Deep-Sea Bacillus: Chemical Diversity, Biosynthesis and Antimicrobial Activity Towards Multidrug-Resistant Bacteria” (Marine Drugs, 2025).
≈ marks a conversion by molar mass, not a printed value. Where two headings read alike, the source gives them in different places. Marks after values point to notes of the source that are not given here. Bridge positions count the residues as written; N and C are the ends. Square brackets hold non-standard residues; d marks the D form. Peptide text beside a SMILES is read from it. d(aThr) = C[C@@H](O)[C@@H](N)C(=O)O; Dhb = C/C=C(\N)C(=O)O

Assays:
[1] = system: S. aureus 6538p; test: microbe, parasite or virus in culture; type: cell-based, Staphylococcus aureus
Description: (§1) To evaluate the antimicrobial potential of all samples, the MICs for E. coli ATCC® 10536™, S. aureus ATCC® 6538™, S. aureus ATCC® 6538p™, methicillin-resistant S. aureus (MRSA), macrolide-resistant S. aureus ([…]), quinolone-resistant S. aureus (QRSA), vancomycin-resistant S. aureus (VRSA), S. epidermidis RP206 [7], S. xylosus MB 5209 [77] were determined by the liquid inhibition assay. Briefly, the bacterial strains were inoculated in 3 mL of liquid Mueller–Hinton broth (MHB) (HiMedia, Einhausen, Germany) in sterile bacteriological tubes and incubated in agitation at 37 °C until they reached the turbidity of 0.5 McFarland. Different from the remaining pathogens, L. monocytogenes MB 677 [79] was diluted in the Trypticasein soy broth (TSB) medium with an additional 0.6% yeast extract. Finally, serial dilutions of the inoculum were performed to obtain a final bacterial concentration of about 5 × 10^5 CFU/mL. Then, 4 µL of each sample was added into a 96-well microtiter plate containing 200 µL of MH medium. After being serially diluted using MH medium, 100 µL of bacterial suspension was inoculated into the broth (~5 × 10^4 CFU/well) and incubated statically for 18 h at 37 °C. DMSO was used as a control to determine the effect of solvent on cell growth. Vancomycin, erythromycin, and ampicillin were used as positive controls.

[2] = system: S. aureus 6538; test: microbe, parasite or virus in culture; type: cell-based, Staphylococcus aureus
Description: as §1

[3] = system: S. aureus macrolide-resistant; test: microbe, parasite or virus in culture; type: cell-based, Staphylococcus aureus
Description: as §1

[4] = system: S. aureus methicillin-resistant; test: microbe, parasite or virus in culture; type: cell-based, Staphylococcus aureus
Description: as §1

[5] = system: S. aureus quinolone-resistant; test: microbe, parasite or virus in culture; type: cell-based, Staphylococcus aureus
Description: as §1

[6] = system: S. xilosus MB5209; test: microbe, parasite or virus in culture; type: cell-based, S. xylosus
Description: as §1

[7] = system: S. aureus vancomycin-resistant; test: Liquid inhibition assay (MIC); type: cell-based, Staphylococcus aureus; conditions: vancomycin-resistant S. aureus (VRSA), 96-well, MH medium, ~5 × 10^4 CFU/well, 18 h at 37 °C, absorbance at 600 nm
Description: as §1

[8] = system: L. monocytogenes 677; test: microbe, parasite or virus in culture; type: cell-based, Listeria monocytogenes
Description: as §1

[9] = system: S. epidermidis RP206; type: cell-based; conditions: RP206, 18 h
Description: as §1

[10] = system: E. coli ATCC 10536; test: Liquid inhibition assay (MIC); type: cell-based, Escherichia coli; conditions: Gram-negative E. coli ATCC 10536
Description: as §1

`CN[C@H](CC(C)C)C(=O)N[C@H]1C(=O)N[C@@H](CC(N)=O)C(=O)N[C@H]2C(=O)N[C@H]3C(=O)N[C@H](C(=O)N[C@H](C(=O)O)c4cc(O)cc(O)c4-c4cc3ccc4O)[C@H](O)c3ccc(c(Cl)c3)Oc3cc2cc(c3O[C@@H]2O[C@H](CO)[C@@H](O)[C@H](O)[C@H]2O[C@H]2C[C@](C)(N)[C@H](O)[C@H](C)O2)Oc2ccc(cc2Cl)[C@H]1O` [Vancomycin] was tested, and the MIC ([1]; S. aureus 6538p, 96-well, MH medium, ~5 × 10^4 CFU/well, 18 h at 37 °C, absorbance at 600 nm, lowest concentration that completely inhibited growth) was 1 ^a μg/mL, the MIC ([1]; Staphylococcus aureus, 6538P, 18 h) was 1 µg/mL (≈ 0.69 µM) and the MIC ([2]; S. aureus 6538, 96-well, MH medium, ~5 × 10^4 CFU/well, 18 h at 37 °C, absorbance at 600 nm) was 0.5 ^a μg/mL. The MIC ([2]; Staphylococcus aureus, 6538, 18 h) was 0.5 µg/mL (≈ 0.345 µM), the MIC ([3]; Staphylococcus aureus, 18 h) was 0.5 µg/mL (≈ 0.345 µM) and the MIC ([3]; macrolide-resistant S. aureus, 96-well, MH medium, ~5 × 10^4 CFU/well, 18 h at 37 °C, absorbance at 600 nm) was 0.5 ^a μg/mL. For the same molecule, the MIC ([4]; Staphylococcus aureus, 18 h) was 0.5 µg/mL (≈ 0.345 µM), the MIC ([4]; methicillin-resistant S. aureus, 96-well, MH medium, ~5 × 10^4 CFU/well, 18 h at 37 °C, absorbance at 600 nm) was 0.5 ^a μg/mL and the MIC ([5]; Staphylococcus aureus, 18 h) was 0.5 µg/mL (≈ 0.345 µM). For the same molecule, the MIC ([5]; quinolone-resistant S. aureus, 96-well, MH medium, ~5 × 10^4 CFU/well, 18 h at 37 °C, absorbance at 600 nm) was 0.5 ^a μg/mL, the MIC ([6]; S. xilosus MB5209, 96-well, MH medium, ~5 × 10^4 CFU/well, 18 h at 37 °C, absorbance at 600 nm) was 0.5 ^a μg/mL and the MIC ([6]; Staphylococcus xylosus, MB5209, 18 h) was 0.5 µg/mL (≈ 0.345 µM).
For `CC[C@H]1OC(=O)[C@H](C)[C@@H](O[C@H]2C[C@@](C)(OC)[C@@H](O)[C@H](C)O2)[C@H](C)[C@@H](O[C@@H]2O[C@H](C)C[C@H](N(C)C)[C@H]2O)[C@](C)(O)C[C@@H](C)C(=O)[C@H](C)[C@@H](O)[C@]1(C)O` [erythromycin], the MIC ([7]; Staphylococcus aureus, read-out: MIC) was 1 µg/mL (≈ 1.36 µM) and the MIC [7] was 1 ^b μg/mL.
For `CC1(C)S[C@@H]2[C@H](NC(=O)[C@H](N)c3ccccc3)C(=O)N2[C@H]1C(=O)O` [ampicillin], the MIC ([8]; L. monocytogenes 677, diluted in TSB with 0.6% yeast extract, 18 h at 37 °C, absorbance at 600 nm) was 1 ^c μg/mL and the MIC ([8]; Listeria monocytogenes, 677, 18 h) was 1 µg/mL (≈ 2.86 µM).
`C/C=C1\NC(=O)[C@H](C)NC(=O)[C@H](C(C)C)NC(=O)[C@H](NC(=O)[C@H](Cc2ccccc2)NC(=O)[C@@H](CC(C)C)NC(=O)[C@@H](Cc2ccccc2)NC(C)=O)[C@@H](C)OC1=O` [TL-119] (Ac-[dF][dL]F[d(aThr)]VA[Dhb]; ester 4-C) was tested, and the MIC ([1]; 6538p, 18 h) was 0.24 µg/mL (≈ 0.299 µM), the MIC ([2]; 6538, 18 h) was 0.24 µg/mL (≈ 0.299 µM) and the MIC ([3]; macrolide-resistant, 18 h) was 1.9 µg/mL (≈ 2.36 µM). It also gave an MIC ([4]; methicillin-resistant, 18 h) of 3.9 µg/mL (≈ 4.85 µM), an MIC ([5]; quinolone-resistant, 18 h) of 0.9 µg/mL (≈ 1.12 µM) and an MIC [9] of 7.8 µg/mL (≈ 9.7 µM). For the same molecule, the MIC ([6]; 18 h) was 7.8 µg/mL (≈ 9.7 µM), the MIC ([8]; 677, 18 h) was 0.24 µg/mL (≈ 0.299 µM) and the “antibacterial activity (in words)” value [10] was “lack of antibacterial activity”.
